In the supplement of paper PMC10307832:

How the values were obtained:
Assay in all cases: relative viability (nuclei count vs DMSO), 5 days (fraction); higher = more cells survive
HCC-15 = tested on: HCC-15
Method in brief: (§1)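 After 5 days of treatment, lung cancer cells in 1536-well plates were fixed and stained in a single step (final 0.05% Triton X-100, 1% formaldehyde, 1 ug/ml Hoechst) and their nuclei counted on 4× images. Treatment had been applied by pin tool the day after seeding as one drug alone or as a fixed anchor-drug dose with five library-drug doses (not always all listed) in √10 steps. Relative viability is the nuclei count of treated wells divided by that of vehicle wells, and values are medians of duplicate plates.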

COR-L 105 = tested on: COR-L 105
Method in brief: as §1

HCC-78 = tested on: HCC-78
Method in brief: as §1

NCI-H1755 = tested on: NCI-H1755
Method in brief: as §1

ABC-1 = tested on: ABC-1
Method in brief: as §1

NCI-H1993 = tested on: NCI-H1993
Method in brief: as §1

UMC-11 = tested on: UMC-11
Method in brief: as §1

NCI-H1975 = tested on: NCI-H1975
Method in brief: as §1

NCI-H322M = tested on: NCI-H322M
Method in brief: as §1

NCI-H441 = tested on: NCI-H441
Method in brief: as §1

EMC-BAC-2 = tested on: EMC-BAC-2
Method in brief: as §1

NCI-H358 = tested on: NCI-H358
Method in brief: as §1

EPLC-272H = tested on: EPLC-272H
Method in brief: as §1

NCI-H2085 = tested on: NCI-H2085
Method in brief: as §1

HOP-62 = tested on: HOP-62
Method in brief: as §1

NCI-H3122 = tested on: NCI-H3122
Method in brief: as §1

NCI-H2023 = tested on: NCI-H2023
Method in brief: as §1

NCI-H2126 = tested on: NCI-H2126
Method in brief: as §1

CAL-12T = tested on: CAL-12T
Method in brief: as §1

LXF-289 = tested on: LXF-289
Method in brief: as §1

NCI-H1666 = tested on: NCI-H1666
Method in brief: as §1

NCI-H1915 = tested on: NCI-H1915
Method in brief: as §1

`O=C(O)c1ccc(-c2c[nH]c3ncc(-c4ccccc4)cc23)cc1C1CCCC1` + Cc1nc(NC(=O)N2CCC[C@H]2C(N)=O)sc1-c1ccnc(C(C)(C)C(F)(F)F)c1 [Alpelisib] (partner 2 µM) was tested, and the relative viability (HCC-15; first compound 0.04 µM) was 0.956, the relative viability (HCC-15; first compound 0.1265 µM) was 0.837 and the relative viability (HCC-15; first compound 0.4 µM) was 0.849. It also gave a relative viability (HCC-15; first compound 1.265 µM) of 0.49, a relative viability (COR-L 105; first compound 0.04 µM) of 0.893 and a relative viability (COR-L 105; first compound 0.1265 µM) of 1.02. For the same molecule, the relative viability (COR-L 105; first compound 0.4 µM) was 1.04, the relative viability (COR-L 105; first compound 1.265 µM) was 0.79 and the relative viability (HCC-78; first compound 0.04 µM) was 0.397. It also gave a relative viability (HCC-78; first compound 0.1265 µM) of 0.361, a relative viability (HCC-78; first compound 0.4 µM) of 0.456 and a relative viability (HCC-78; first compound 1.265 µM) of 0.321. For the same molecule, the relative viability (NCI-H1755; first compound 0.04 µM) was 0.952, the relative viability (NCI-H1755; first compound 0.1265 µM) was 1.02 and the relative viability (NCI-H1755; first compound 0.4 µM) was 0.98. It also gave a relative viability (NCI-H1755; first compound 1.265 µM) of 0.923, a relative viability (ABC-1; first compound 0.04 µM) of 0.831 and a relative viability (ABC-1; first compound 0.1265 µM) of 1.09. For the same molecule, the relative viability (ABC-1; first compound 0.4 µM) was 1.24, the relative viability (ABC-1; first compound 1.265 µM) was 1.2 and the relative viability (NCI-H1993; first compound 0.04 µM) was 0.656. The relative viability (NCI-H1993; first compound 0.4 µM) was 0.68, the relative viability (NCI-H1993; first compound 1.265 µM) was 0.594 and the relative viability (UMC-11; first compound 0.04 µM) was 0.938. The relative viability (UMC-11; first compound 0.1265 µM) was 1.06, the relative viability (UMC-11; first compound 0.4 µM) was 1.02 and the relative viability (UMC-11; first compound 1.265 µM) was 0.929. The relative viability (NCI-H1975; first compound 0.04 µM) was 0.633, the relative viability (NCI-H1975; first compound 0.1265 µM) was 0.817 and the relative viability (NCI-H1975; first compound 0.4 µM) was 0.652. The relative viability (NCI-H1975; first compound 1.265 µM) was 0.578, the relative viability (NCI-H322M; first compound 0.04 µM) was 0.979 and the relative viability (NCI-H322M; first compound 0.1265 µM) was 1. For the same molecule, the relative viability (NCI-H322M; first compound 0.4 µM) was 0.834, the relative viability (NCI-H322M; first compound 1.265 µM) was 0.703 and the relative viability (NCI-H441; first compound 0.04 µM) was 0.707. For the same molecule, the relative viability (NCI-H441; first compound 0.1265 µM) was 0.692, the relative viability (NCI-H441; first compound 0.4 µM) was 0.759 and the relative viability (NCI-H441; first compound 1.265 µM) was 0.382. The relative viability (EMC-BAC-2; first compound 0.04 µM) was 0.739, the relative viability (EMC-BAC-2; first compound 0.1265 µM) was 0.782 and the relative viability (EMC-BAC-2; first compound 0.4 µM) was 0.719. The relative viability (EMC-BAC-2; first compound 1.265 µM) was 0.713, the relative viability (NCI-H358; first compound 0.04 µM) was 0.767 and the relative viability (NCI-H358; first compound 0.1265 µM) was 0.904. For the same molecule, the relative viability (NCI-H358; first compound 0.4 µM) was 0.708, the relative viability (NCI-H358; first compound 1.265 µM) was 0.381 and the relative viability (EPLC-272H; first compound 0.04 µM) was 0.79. For the same molecule, the relative viability (EPLC-272H; first compound 0.1265 µM) was 0.974, the relative viability (EPLC-272H; first compound 0.4 µM) was 0.949 and the relative viability (EPLC-272H; first compound 1.265 µM) was 0.633. It also gave a relative viability (NCI-H2085; first compound 0.04 µM) of 1.03, a relative viability (NCI-H2085; first compound 0.1265 µM) of 0.98 and a relative viability (NCI-H2085; first compound 0.4 µM) of 0.944. The relative viability (NCI-H2085; first compound 1.265 µM) was 0.741, the relative viability (HOP-62; first compound 0.04 µM) was 0.709 and the relative viability (HOP-62; first compound 0.1265 µM) was 1.02. The relative viability (HOP-62; first compound 0.4 µM) was 0.942, the relative viability (HOP-62; first compound 1.265 µM) was 0.922 and the relative viability (NCI-H3122; first compound 0.04 µM) was 0.724. It also gave a relative viability (NCI-H3122; first compound 0.1265 µM) of 0.825, a relative viability (NCI-H3122; first compound 0.4 µM) of 0.752 and a relative viability (NCI-H3122; first compound 1.265 µM) of 0.617. It also gave a relative viability (NCI-H2023; first compound 0.04 µM) of 0.629, a relative viability (NCI-H2023; first compound 0.1265 µM) of 0.65 and a relative viability (NCI-H2023; first compound 0.4 µM) of 0.583. It also gave a relative viability (NCI-H2023; first compound 1.265 µM) of 0.529, a relative viability (NCI-H2126; first compound 0.04 µM) of 0.787 and a relative viability (NCI-H2126; first compound 0.1265 µM) of 0.76. The relative viability (NCI-H2126; first compound 0.4 µM) was 0.696, the relative viability (NCI-H2126; first compound 1.265 µM) was 0.629 and the relative viability (CAL-12T; first compound 0.04 µM) was 1.17. For the same molecule, the relative viability (CAL-12T; first compound 0.1265 µM) was 1.45, the relative viability (CAL-12T; first compound 0.4 µM) was 1.2 and the relative viability (CAL-12T; first compound 1.265 µM) was 1.11. For the same molecule, the relative viability (LXF-289; first compound 0.04 µM) was 0.979, the relative viability (LXF-289; first compound 0.1265 µM) was 1.05 and the relative viability (LXF-289; first compound 0.4 µM) was 0.756. It also gave a relative viability (LXF-289; first compound 1.265 µM) of 0.286, a relative viability (NCI-H1666; first compound 0.04 µM) of 0.965 and a relative viability (NCI-H1666; first compound 0.1265 µM) of 0.897. It also gave a relative viability (NCI-H1666; first compound 0.4 µM) of 0.892, a relative viability (NCI-H1666; first compound 1.265 µM) of 0.367 and a relative viability (NCI-H1915; first compound 0.04 µM) of 1.13. It also gave a relative viability (NCI-H1915; first compound 0.1265 µM) of 1.07, a relative viability (NCI-H1915; first compound 0.4 µM) of 1.04 and a relative viability (NCI-H1915; first compound 1.265 µM) of 0.737.
